Publication PMC3532212 (PLoS ONE, 2012)

Tests used:
[1] = CSF concentrations after a single oral dose of FTY720, satellite rats; assay type: in vivo, rat; settings: FTY720 3.0 or 10 mg/kg single oral dose, 4, 8, 24, 72-hrs post-dose
Protocol: Prior to longer-term hypertension studies with FTY720 an acute, single oral-dose study was performed to define the lower and upper limits of a pharmacologically-active dose with respect to acute hemodynamic effects. […] Values of both the parent and metabolite were detectable through at least 72-hrs post-dose. Tissue concentrations in the brain, skeletal muscle, and CSF were also determined in a separate group of satellite rats (please see Supplementary Figure, S2 ). Relative to the vehicle control group, FTY720 elicited dose-dependent and sustained increases in mean arterial pressure after a single oral dose, an effect that reached statistical significance in the 3 and 10 mg/kg dose groups (to 13.5±1.8 and 19.9±2.8 mmHg above baseline, respectively, based on a 24-hr mean values on day 1 vs. 3.6±1.5 mmHg in vehicle controls, Figure 4 , A). […] The acute hemodynamic effects of a single oral dose of BAF312 (0.3, 3.0, and 30 mg/kg) were also quantified.
A blood sample or tissues were harvested from satellite rats at 4, 8, 24, and 72-hrs post-dose. […] (TIF) Click here for additional data file.

[2] = Plasma concentrations during escalating i.v. infusion in anesthetized rats; assay type: in vivo; settings: anesthetized rat, FTY720 i.v.
Protocol: The cardiovascular effects of FTY720 and BAF312 were tested in anesthetized rats (180–200 g). In brief, male Sprague Dawley rats (Charles River) were anesthetized with Inactin (110 mg/kg i.p.) and a tracheotomy performed. The femoral artery and veins were catheterized for measurement of mean arterial pressure and heart rate, collection of blood samples at 20-min intervals (0.2 mL/sample), and for compound infusion/hydration as previously described, [24]; blood samples were also withdrawn in vehicle-treated control rats. FTY720, infused as a hydrochloride salt (0.1, 0.3, 1.0 mg/kg/20-min free base equivalent solubilized in a 100% PEG-400 vehicle), or BAF312 (0.5, 1.5, 5.0 mg/kg/20-min solubilized in a 100% PEG-400 vehicle) were administered via three escalating 20-min infusions (0.011 mL/min) followed by a 1-hr post-treatment period. A blood sample was withdrawn at 20, 40, 60, and 120-minutes for analysis of plasma concentrations of the parent compound, and in the case of FTY720, also the phosphorylated metabolite, (S)-FTY720-P. Statistical significance (p<0.05) was based on a t-test comparing treatment change from baseline (baseline was defined as the period from −30 to 0 minutes) vs. vehicle controls change from baseline at each timepoint without adjustment for multiple comparisons. In a separate group of anesthetized rats in which left ventricular (LV) contractility was also recorded with a Millar pressure transducer introduced into the left ventricle, BAF312 was infused in the same dosing regimen as the studies described above (0.5, 1.5, 5.0 mg/kg/20-min solubilized in a 100% PEG-400 vehicle) and effects on LV dP/dtmax were recorded.

[3] = Plasma concentrations in repeat-dosing study, satellite rats; assay type: in vivo, rat; settings: for Plasma concentration: rat, mean±SEM; for Plasma concentration at Tmax / Terminal plasma concentration at Tmax: satellite rats; for Plasma concentration at Tmax: day 1; for Terminal plasma concentration at Tmax: last day of study
Protocol: Mean arterial pressure was assessed in conscious, freely moving male Sprague Dawley rats (n = 6–8/group; Charles River) instrumented with telemetry transmitters (DSI-Ponemah) and housed in metabolism cages as previously described, [26]. Tested compounds were solubilized in a 0.5% Methylcellulose/0.015% Tween 80 vehicle that was also dosed alone (p.o./QD, 5 mL/kg) as a control in the study. FTY720 was administered p.o. at 0.3, 1.0, 3.0, 10.0 mg/kg p.o. as a single dose or p.o./QD at 0.5, 1.5, and 5.0 mg/kg in a chronic study. BAF312 was administered p.o/QD at 0.3, 3.0, and 30 mg/kg as a single dose and in a chronic study. Mean arterial pressure and heart rate are shown as 1-hr and/or 24-hr mean values±SEM as described in the results. Blood samples in satellite rats were withdrawn at various timepoints as described in the results for analysis of plasma concentrations of the parent compound and, in the case of FTY720, also the phosphorylated metabolite, (S)-FTY720-P. Statistical analysis for the single-dose acute studies was based on one-way ANOVA to compare the treatment groups vs. vehicle for each time period after dosing (0–24 hrs, 24–48 hrs, and 48–72 hrs); statistical significance (p<0.05) was detected by Dunnett’s post-hoc test to compare treatment with vehicle controls. The statistical analysis in the chronic studies were based on one-way ANOVA with repeated measures to compare the treatment arms; statistical significance (p<0.05) was detected by Dunnett’s post-hoc test to compare treatment with vehicle controls.

## CCCCCCCCc1ccc(CC[C@](N)(CO)COP(=O)(O)O)cc1 [FTY720-P]
[1]
  concentration in the CSF: No compound was detectable
[2]; end of 0.1 mg/kg/20 min infusion, listed as phosphorylated FTY720, 0.1 mg/kg
  Plasma concentration: 285 ± 87 nM
[2]; end of 0.3 mg/kg/20 min infusion, listed as phosphorylated FTY720, 0.3 mg/kg
  Plasma concentration: 683 ± 214 nM
[2]; end of 1.0 mg/kg/20 min infusion, listed as phosphorylated FTY720, 1 mg/kg
  Plasma concentration: 908 ± 264 nM
[2]; end of 60-min post-treatment period, listed as phosphorylated FTY720
  Plasma concentration: 211 ± 17 nM
[3]; FTY720 0.5 mg/kg/d p.o., Day 1, 4 hr post-dose
  Plasma concentration: 46 ± 5 nM
[3]; FTY720 0.5 mg/kg/d p.o., Day 1, 8 hr post-dose
  Plasma concentration: 103 ± 24 nM
[3]; FTY720 0.5 mg/kg/d p.o., Day 1, 24 hr post-dose
  Plasma concentration: 65 ± 23 nM
[3]; FTY720 0.5 mg/kg/d p.o., Terminal (last day), 0-hr
  Plasma concentration: 141 ± 31 nM
[3]; FTY720 0.5 mg/kg/d p.o., Terminal (last day), 4 hr post-dose
  Plasma concentration: 229 ± 40 nM
[3]; FTY720 0.5 mg/kg/d p.o., Terminal (last day), 8 hr post-dose
  Plasma concentration: 478 ± 303 nM
[3]; FTY720 0.5 mg/kg/d p.o., Terminal (last day), 24 hr post-dose
  Plasma concentration: 546 ± 359 nM
[3]; FTY720 1.5 mg/kg/d p.o., Day 1, 4 hr post-dose
  Plasma concentration: 231 ± 1 nM
[3]; FTY720 1.5 mg/kg/d p.o., Day 1, 8 hr post-dose
  Plasma concentration: 275 ± 55 nM
[3]; FTY720 1.5 mg/kg/d p.o., Day 1, 24 hr post-dose
  Plasma concentration: 264 ± 79 nM
[3]; FTY720 1.5 mg/kg/d p.o., Terminal (last day), 0-hr
  Plasma concentration: 690 ± 136 nM
[3]; FTY720 1.5 mg/kg/d p.o., Terminal (last day), 4 hr post-dose
  Plasma concentration: 800 ± 77 nM
[3]; FTY720 1.5 mg/kg/d p.o., Terminal (last day), 8 hr post-dose
  Plasma concentration: 647 ± 121 nM
[3]; FTY720 1.5 mg/kg/d p.o., Terminal (last day), 24 hr post-dose
  Plasma concentration: 560 ± 70 nM
[3]; FTY720 5.0 mg/kg/d p.o., Day 1, 4 hr post-dose
  Plasma concentration: 506 ± 74 nM
[3]; FTY720 5.0 mg/kg/d p.o., Day 1, 8 hr post-dose
  Plasma concentration: 696 ± 279 nM
[3]; FTY720 5.0 mg/kg/d p.o., Day 1, 24 hr post-dose
  Plasma concentration: 773 ± 55 nM
[3]; FTY720 5.0 mg/kg/d p.o., Terminal (last day), 0-hr
  Plasma concentration: 2344 ± 356 nM
[3]; FTY720 5.0 mg/kg/d p.o., Terminal (last day), 4 hr post-dose
  Plasma concentration: 2913 ± 238 nM
[3]; FTY720 5.0 mg/kg/d p.o., Terminal (last day), 8 hr post-dose
  Plasma concentration: 1508 ± 316 nM
[3]; FTY720 5.0 mg/kg/d p.o., Terminal (last day), 24 hr post-dose
  Plasma concentration: 1561 ± 230 nM
[3]; FTY720 0.5 mg/kg/d p.o.
  Plasma concentration at Tmax: 103 ± 24 nM
  Terminal plasma concentration at Tmax: 546 ± 358 nM
[3]; FTY720 1.5 mg/kg/d p.o.
  Plasma concentration at Tmax: 275 ± 55 nM
  Terminal plasma concentration at Tmax: 800 ± 77 nM
[3]; FTY720 5.0 mg/kg/d p.o.
  Plasma concentration at Tmax: 773 ± 55 nM
  Terminal plasma concentration at Tmax: 2913 ± 92 nM
